Values after ≈ are worked out from the molar mass of the structure shown.
What was measured:
Experiment in all cases: MIC, broth microdilution growth inhibition
Format in all cases: cell-based
Conditions in all cases: Mueller-Hinton broth, 5×10^5 CFU/ml, 37° C., 18 h
E. coli 1850E = test system: E. coli 1850E
Procedure: (§1) Growth-inhibitory activity was determined on liquid medium by the antibiotic dilution technique using 96-well microtiter system plates containing two-fold dilutions of antibiotic-agent in 0.2 ml. of Mueller-Hinton broth. Plates were inoculated with each test organism to yield a final inoculum of 5×10^5 CFU/ml and were incubated aerobically at 37° C. for 18 h. The MIC was defined as the lowest concentration of antibacterial agent that inhibited development of visible growth in the microdilution wells.

E. hirae ATCC 9790 = test system: E. hirae ATCC 9790
Procedure: as §1

H. influenzae ATCC 49247 = test system: H. influenzae ATCC 49247
Procedure: as §1

[1] = test system: M. catarrhalis ATCC 23246
Procedure: as §1

S. aureus ATCC 29213 = test system: S. aureus ATCC 29213
Procedure: as §1

S. aureus RN4250 = test system: S. aureus RN4250
Procedure: as §1

S. aureus RN450 = test system: S. aureus RN450
Procedure: as §1

S. pneumoniae ATCC 49619 = test system: S. pneumoniae ATCC 49619
Procedure: as §1

S. aureus ATCC 13709 = test system: S. aureus ATCC 13709
Procedure: as §1

S. pneumoniae 157E = test system: S. pneumoniae 157E
Procedure: as §1

E. coli ATCC 25933 = test system: E. coli ATCC 25933
Procedure: as §1

MIC (E. coli 1850E) [µg/mL]	MIC (E. hirae ATCC 9790) [µg/mL]	MIC (H. influenzae ATCC 49247) [µg/mL]	MIC [1] [µg/mL]	MIC (S. aureus RN4250) [µg/mL]	MIC (S. aureus RN450) [µg/mL]	MIC (S. pneumoniae ATCC 49619) [µg/mL]	MIC (S. aureus ATCC 13709) [µg/mL]	MIC (S. pneumoniae 157E) [µg/mL]	MIC (E. coli ATCC 25933) [µg/mL]	Structure (SMILES)	MIC (S. aureus ATCC 29213) [µg/mL]
64 (≈ 114 µM)	0.25 (≈ 0.447 µM)	32 (≈ 57.2 µM)	1 (≈ 1.79 µM)	2 (≈ 3.57 µM)	0.25 (≈ 0.447 µM)	0.5 (≈ 0.894 µM)	0.5 (≈ 0.894 µM)	1 (≈ 1.79 µM)		CCOC(=O)C(C)Nc1ccc2c(c1O)C(=O)C1=C(O)[C@]3(O)C(=O)C(C(N)=O)=C(O)[C@@H](N(C)C)[C@@H]3[C@@H](O)[C@@H]1[C@H]2C (stereo partly drawn) [Example 2, [4S-(4a,5,5a,6,12a)]-4-(Dimethylamino)-9-[1-(ethoxycarbonyl)ethyl]amino-1,4,4a,5,5a,6,11,12a-octahydro-3,5,10,12,12a-pentahydroxy-6-methyl-1,11-dioxo-2-naphtacenecarboxamide]	
32 (≈ 58.7 µM)	1 (≈ 1.83 µM)	8 (≈ 14.7 µM)	2 (≈ 3.67 µM)	2 (≈ 3.67 µM)	0.5 (≈ 0.917 µM)	0.5 (≈ 0.917 µM)	1 (≈ 1.83 µM)			CCOC(=O)CNc1ccc2c(c1O)C(=O)C1=C(O)[C@]3(O)C(=O)C(C(N)=O)=C(O)[C@@H](N(C)C)[C@@H]3[C@@H](O)[C@@H]1[C@H]2C [Example 3, [4S-(4a,5,5a,6,12a)]-4-(Dimethylamino)-9-[(ethoxycarbonyl)methyl]amino-1,4,4a,5,5a,6,11,12a-octahydro-3,5,10,12,12a-pentahydroxy-6-methyl-1,11-dioxo-2-naphtacenecarboxamide]	
		2 (≈ 3.67 µM)				0.06 (≈ 0.11 µM)			2 (≈ 3.67 µM)	C[C@H]1c2ccc(NCC(=O)N(C)C)c(O)c2C(=O)C2=C(O)[C@]3(O)C(=O)C(C(N)=O)=C(O)[C@@H](N(C)C)[C@@H]3[C@@H](O)[C@@H]21 [Example 4, [4S-(4a,5,5a,6,12a)]-4-(Dimethylamino)-9-[(N,N-dimethylaminocarbonyl)methyl]amino-1,4,4a,5,5a,6,11,12a-octahydro-3,5,10,12,12a-pentahydroxy-6-methyl-1,11-dioxo-2-naphtacenecarboxamide]	0.5 (≈ 0.918 µM)

Structure (SMILES)	MIC (E. coli 1850E) [µg/mL]	MIC (E. hirae ATCC 9790) [µg/mL]	MIC (H. influenzae ATCC 49247) [µg/mL]	MIC [1] [µg/mL]	MIC (S. aureus RN4250) [µg/mL]	MIC (S. aureus RN450) [µg/mL]	MIC (S. pneumoniae ATCC 49619) [µg/mL]	MIC (S. aureus ATCC 13709) [µg/mL]	MIC (S. pneumoniae 157E) [µg/mL]	MIC (E. coli ATCC 25933) [µg/mL]	MIC (S. aureus ATCC 29213) [µg/mL]
CCOC(=O)CNc1cc(N(C)C)c2c(c1O)C(=O)C1=C(O)[C@]3(O)C(=O)C(C(N)=O)=C(O)[C@@H](N(C)C)[C@@H]3C[C@@H]1C2 [Example 1, [4S-(4a,5a,12a)]-4,7-Bis(dimethylamino)-9-[(ethoxycarbonyl)methyl]amino-1,4,4a,5,5a,6,11,12a-octahydro-3,10,12,12a-tetrahydroxy-1,11-dioxo-2-naphtacenecarboxamide]	32 (≈ 57.3 µM)	8 (≈ 14.3 µM)	32 (≈ 57.3 µM)	4 (≈ 7.16 µM)	16 (≈ 28.6 µM)	16 (≈ 28.6 µM)	32 (≈ 57.3 µM)				16 (≈ 28.6 µM)

Source: patent US7208482B2, “9-aminoacyl tetracycline compounds and methods of use thereof” (Paratek Pharmaceuticals, Inc., priority 2001, dated 2007)
